Assay results as given in patent US11780839B2, “Compounds for treating Huntington's disease” (PTC THERAPEUTICS, INC., priority 2018, dated 2023).

Tested on: Endogenous Huntingtin Protein
Assay: Endogenous Huntingtin Protein Assay (ELISA-based Meso Scale Discovery electrochemiluminescence)
Assay type: cell-based
Details: MSD electrochemiluminescence, Table 1
Protocol: Compounds of Formula (I) or Formula (II) were tested using the Meso Scale Discovery (MSD) Assay provided in International Application No. PCT/US2016/066042, filed on Dec. 11, 2016 and claiming priority to U.S. Provisional Application 62/265,652 filed on Dec. 10, 2015, the entire contents of which are incorporated herein by reference.
The Endogenous Huntingtin Protein assay used in Example 1 was developed using the ELISA-based MSD electrochemiluminescence assay platform.
Endogenous Huntingtin Protein Assay
Meso Scale Discovery (MSD) 96-well or 384-well plates were coated overnight at 4° C. with MW1 (expanded polyglutamine) or MAB2166 monoclonal antibody (for capture) at a concentration of 1 μg/mL in PBS (30 μL per well). Plates were then washed three times with 300 μL wash buffer (0.05% Tween-20 in PBS) and blocked (100 μL blocking buffer; 5% BSA in PBS) for 4-5 hours at room temperature with rotational shaking and then washed three times with wash buffer.
Samples (25 μL) were transferred to the antibody-coated MSD plate and incubated overnight at 4° C. After removal of the lysates, the plate was washed three times with wash buffer, and 25 μL of #5656S (Cell signaling; rabbit monoclonal) secondary antibody (diluted to 0.25 μg/mL in 0.05% Tween-20 in blocking buffer) was added to each well and incubated with shaking for 1 Hour at room temperature. Following incubation with the secondary antibody, the wells were rinsed with wash buffer after which 25 μL of goat anti-rabbit SULFO TAG secondary detection antibody (required aspect of the MSD system) (diluted to 0.25 μg/mL in 0.05% Tween-20 in blocking buffer) was added to each well and incubated with shaking for 1 hour at room temperature. After rinsing three times with wash buffer, 150 μL of read buffer T with surfactant (MSD) were added to each empty well, and the plate was imaged on a SI 6000 imager (MSD) according to manufacturers' instructions provided for 96- or 384-well plates.

Compound | IC50 [nM]
CN(c1ncc(-c2ccc(-c3ncnc(O)n3)cc2O)nn1)C1CC(C)(C)NC(C)(C)C1 [Cpd 33, 4-(3-hydroxy-4-{3-[methyl(2,2,6,6-tetramethylpiperidin-4-yl)amino]-1,2,4-triazin-6-yl}phenyl)-1,3,5-triazin-2-ol] | 1000 to 3000
CN(c1ncc(-c2ccc(-n3cnc(F)c3)cc2O)nn1)C1CC(C)(C)NC(C)(C)C1 [Cpd 50, 5-(4-fluoro-1H-imidazol-1-yl)-2-{3-[methyl(2,2,6,6-tetramethylpiperidin-4-yl)amino]-1,2,4-triazin-6-yl}phenol] | ≤ 100
Cc1ncn(-c2ccc(-c3cnc(N(C)C4CC(C)(C)NC(C)(C)C4)nn3)c(O)c2)n1 [Cpd 51, 2-{3-[methyl(2,2,6,6-tetramethylpiperidin-4-yl)amino]-1,2,4-triazin-6-yl}-5-(3-methyl-1H-1,2,4-triazol-1-yl)phenol] | > 500
CN1CCC(Nc2ncc(-c3ccc(-c4cn[nH]c4)cc3O)nn2)CC1 [Cpd 52, 2-{3-[(1-methylpiperidin-4-yl)amino]-1,2,4-triazin-6-yl}-5-(1H-pyrazol-4-yl)phenol] | 100 to 500
CN(c1ncc(-c2ccc(-c3cccs3)cc2O)nn1)C1CC(C)(C)NC(C)(C)C1 [Cpd 53, 2-{3-[methyl(2,2,6,6-tetramethylpiperidin-4-yl)amino]-1,2,4-triazin-6-yl}-5-(thiophen-2-yl)phenol] | 100 to 500
Cc1csc(-c2ccc(-c3cnc(N(C)C4CC(C)(C)NC(C)(C)C4)nn3)c(O)c2)c1 [Cpd 54, 2-{3-[methyl(2,2,6,6-tetramethylpiperidin-4-yl)amino]-1,2,4-triazin-6-yl}-5-(4-methylthiophen-2-yl)phenol] | > 500
COc1cnn(-c2ccc(-c3cnc(N(C)C4CC(C)(C)NC(C)(C)C4)nn3)c(O)c2)c1 [Cpd 55, 5-(4-methoxy-1H-pyrazol-1-yl)-2-{3-[methyl(2,2,6,6-tetramethylpiperidin-4-yl)amino]-1,2,4-triazin-6-yl}phenol] | ≤ 100
CN(c1ncc(-c2ccc(-c3ccn(C)c(=O)c3)cc2O)nn1)C1CC(C)(C)NC(C)(C)C1 [Cpd 56] | ≤ 100
CN(c1ncc(-c2ccc(-c3c[nH]nc3Cl)cc2O)nn1)C1CC(C)(C)NC(C)(C)C1 [Cpd 57, 5-(3-chloro-1H-pyrazol-4-yl)-2-{3-[methyl(2,2,6,6-tetramethylpiperidin-4-yl)amino]-1,2,4-triazin-6-yl}phenol] | ≤ 100
CN(c1ncc(-c2ccc(-c3nccs3)cc2O)nn1)C1CC(C)(C)NC(C)(C)C1 [Cpd 58, 2-{3-[methyl(2,2,6,6-tetramethylpiperidin-4-yl)amino]-1,2,4-triazin-6-yl}-5-(1,3-thiazol-2-yl)phenol] | ≤ 100
CN(c1ncc(-c2ccc(-n3cnc(Cl)c3)cc2O)nn1)C1CC(C)(C)NC(C)(C)C1 [Cpd 59, 5-(4-chloro-1H-imidazol-1-yl)-2-{3-[methyl(2,2,6,6-tetramethylpiperidin-4-yl)amino]-1,2,4-triazin-6-yl}phenol] | ≤ 100
CN(c1ncc(-c2ccc(-c3ccnnc3)cc2O)nn1)C1CC(C)(C)NC(C)(C)C1 [Cpd 60, 2-{3-[methyl(2,2,6,6-tetramethylpiperidin-4-yl)amino]-1,2,4-triazin-6-yl}-5-(pyridazin-4-yl)phenol] | ≤ 100
Cc1cc(-c2ccc(-c3cnc(N(C)C4CC(C)(C)NC(C)(C)C4)nn3)c(O)c2)cnn1 [Cpd 61, 5-(6-methylpyridazin-4-yl)-2-{3-[methyl(2,2,6,6-tetramethylpiperidin-4-yl)amino]-1,2,4-triazin-6-yl}phenol] | ≤ 100
CN(c1ncc(-c2ccc(-c3ncn(C)n3)cc2O)nn1)C1CC(C)(C)NC(C)(C)C1 [Cpd 62, 2-{3-[methyl(2,2,6,6-tetramethylpiperidin-4-yl)amino]-1,2,4-triazin-6-yl}-5-(1-methyl-1H-1,2,4-triazol-3-yl)phenol] | 100 to 500
CN(c1ncc(-c2ccc(-n3nccn3)cc2O)nn1)C1CC(C)(C)NC(C)(C)C1 [Cpd 63, 2-{3-[methyl(2,2,6,6-tetramethylpiperidin-4-yl)amino]-1,2,4-triazin-6-yl}-5-(2H-1,2,3-triazol-2-yl)phenol] | ≤ 100
Cc1ncc(-c2ccc(-c3cnc(N(C)C4CC(C)(C)NC(C)(C)C4)nn3)c(O)c2)s1 [Cpd 64, 2-{3-[methyl(2,2,6,6-tetramethylpiperidin-4-yl)amino]-1,2,4-triazin-6-yl}-5-(2-methyl-1,3-thiazol-5-yl)phenol] | ≤ 100

Compound | IC50 [nM]
CN(c1ncc(-c2ccc(-c3ncns3)cc2O)nn1)C1CC(C)(C)NC(C)(C)C1 [Cpd 65, 2-{3-[methyl(2,2,6,6-tetramethylpiperidin-4-yl)amino]-1,2,4-triazin-6-yl}-5-(1,2,4-thiadiazol-5-yl)phenol] | ≤ 100
Cc1nsc(-c2ccc(-c3cnc(N(C)C4CC(C)(C)NC(C)(C)C4)nn3)c(O)c2)n1 [Cpd 66, 2-{3-[methyl(2,2,6,6-tetramethylpiperidin-4-yl)amino]-1,2,4-triazin-6-yl}-5-(3-methyl-1,2,4-thiadiazol-5-yl)phenol] | ≤ 100
CN(c1ncc(-c2ccc(-c3cn[nH]c3)cc2O)nn1)C1CC(C)(C)NC(C)(C)C1F (centres unmarked) [Cpd 67, 2-{3-[(3-fluoro-2,2,6,6-tetramethylpiperidin-4-yl)(methyl)amino]-1,2,4-triazin-6-yl}-5-(1H-pyrazol-4-yl)phenol] | 100 to 500
CC(=O)c1cnn(-c2ccc(-c3cnc(N(C)C4CC(C)(C)NC(C)(C)C4)nn3)c(O)c2)c1 [Cpd 68, 1-[1-(3-hydroxy-4-{3-[methyl(2,2,6,6-tetramethylpiperidin-4-yl)amino]-1,2,4-triazin-6-yl}phenyl)-1H-pyrazol-4-yl]ethan-l-one] | ≤ 100
Cc1cnn(-c2ccc(-c3cnc(N(C)C4CC(C)(C)NC(C)(C)C4)nn3)c(O)c2)n1 [Cpd 69, 2-{3-[methyl(2,2,6,6-tetramethylpiperidin-4-yl)amino]-1,2,4-triazin-6-yl}-5-(4-methyl-2H-1,2,3-triazol-2-yl)phenol] | ≤ 100
CN(c1ncc(-c2ccc(-c3cccnc3)cc2O)nn1)C1CC(C)(C)NC(C)(C)C1 [Cpd 70, 2-{3-[methyl(2,2,6,6-tetramethylpiperidin-4-yl)amino]-1,2,4-triazin-6-yl}-5-(pyridin-3-yl)phenol] | 100 to 500
CN(c1ncc(-c2ccc(-c3ccccn3)cc2O)nn1)C1CC(C)(C)NC(C)(C)C1 [Cpd 71, 2-{3-[methyl(2,2,6,6-tetramethylpiperidin-4-yl)amino]-1,2,4-triazin-6-yl}-5-(pyridin-2-yl)phenol] | ≤ 100
CC1(C)CC(Oc2ncc(-c3ccc(-c4c[nH]nc4F)cc3O)nn2)CC(C)(C)N1 [Cpd 72, 5-(3-fluoro-1H-pyrazol-4-yl)-2-{3-[(2,2,6,6-tetramethylpiperidin-4-yl)oxy]-1,2,4-triazin-6-yl}phenol] | ≤ 100
CC1(C)CC(Nc2ncc(-c3ccc(-c4c[nH]nc4F)cc3O)nn2)CC(C)(C)N1 [Cpd 73, 5-(3-fluoro-1H-pyrazol-4-yl)-2-{3-[(2,2,6,6-tetramethylpiperidin-4-yl)amino]-1,2,4-triazin-6-yl}phenol] | ≤ 100
Cc1ncc(-c2ccc(-c3cnc(N(C)C4CC(C)(C)NC(C)(C)C4)nn3)c(O)c2)o1 [Cpd 74, 5-(2-methyl-1,3-oxazol-5-yl)-2-{3-[methyl(2,2,6,6-tetramethylpiperidin-4-yl)amino]-1,2,4-triazin-6-yl}phenol] | ≤ 100
CN(c1ncc(-c2ccc(-c3cn(C)cn3)cc2O)nn1)C1CC(C)(C)NC(C)(C)C1 [Cpd 75, 5-(1-methyl-1H-imidazol-4-yl)-2-{3-[methyl(2,2,6,6-tetramethylpiperidin-4-yl)amino]-1,2,4-triazin-6-yl}phenol] | > 500
CN(c1ncc(-c2ccc(-c3ccn(C)n3)cc2O)nn1)C1CC(C)(C)NC(C)(C)C1 [Cpd 76, 5-(1-methyl-1H-pyrazol-3-yl)-2-{3-[methyl(2,2,6,6-tetramethylpiperidin-4-yl)amino]-1,2,4-triazin-6-yl}phenol] | ≤ 100
CN1[C@@H]2CCC[C@H]1CC(Nc1ncc(-c3ccc(-c4cn[nH]c4)cc3O)nn1)C2 (stereo partly drawn) [Cpd 77, 2-{3-{[(1R,3s,5S)-9-methyl-9-azabicyclo[3.3.1]nonan-3-yl]amino}-1,2,4-triazin-6-yl)-5-(1H-pyrazol-4-yl)phenol] | ≤ 100
Oc1cc(-c2cn[nH]c2)ccc1-c1cnc(NC2C[C@H]3CC[C@@H](C2)N3)nn1 (some centres unmarked) [Cpd 78] | ≤ 100
CN(c1ncc(-c2ccc(-n3cncn3)cc2O)nn1)C1CC(C)(C)NC(C)(C)C1 [Cpd 79, 2-{3-[methyl(2,2,6,6-tetramethylpiperidin-4-yl)amino]-1,2,4-triazin-6-yl}-5-(1H-1,2,4-triazol-1-yl)phenol] | ≤ 100
CN(c1ncc(-c2ccc(-c3cn4ccnc4cn3)cc2O)nn1)C1CC(C)(C)NC(C)(C)C1 [Cpd 80, 5-(imidazo[1,2-a]pyrazin-6-yl)-2-{3-[methyl(2,2,6,6-tetramethylpiperidin-4-yl)amino]-1,2,4-triazin-6-yl}phenol] | ≤ 100
